Here are results for one molecule from patent publication US11865100B2, “Method for treatment of rosacea in patients aged 65 years and older” (Sol-Gel Technologies Ltd., priority 2019, dated 2024).

One test deals with rosacea. Conditions: Gul 2008; BPO as sole active agent; cited from earlier work.
Test [1] relates to papulopustular rosacea in patients aged 65 years and older. The experiment in a line: Randomized, double-blind, vehicle-controlled 12-week study of E-BPO cream: Investigator Global Assessment (IGA) success rate. The test is classed as in vivo, human. Conditions: Week 8. As to the method:
Description: A randomized, double-blind, multi-center, parallel group, active- and vehicle-controlled study of encapsulated 5% benzoyl peroxide cream (E-BPO) and vehicle cream was performed to assess the efficacy and safety of E-BPO compared to vehicle. Study duration was 12 weeks and included approximately 350 male and female patients afflicted with papulopustular rosacea. 71 patients (about 20%) were at least 65 years of age.
Patients were admitted into the study after meeting all inclusion/exclusion criteria, including a clinical diagnosis of rosacea. Subjects with moderate to severe rosacea who were appropriate for systemic treatment were counseled regarding their treatment options by the Principal Investigator. At each visit, a 5-point IGA scale of rosacea and inflammatory lesion counts were performed and recorded.
Dosing: Patients were randomly organized in a 2:1 ratio to the study product or vehicle treatment group, respectively. Patients applied the study product once daily for 12 weeks on the face in a thin layer to provide even distribution.
Clinical and Safety Evaluations were performed at Baseline and Weeks 2, 4, 8 and 12.
The success rate of the treatment of rosacea (defined as a 2-grade improvement in the IGA relative to Baseline at Weeks 2, 4, […] and 12, with an IGA of Clear or Almost Clear) in patients aged 65 years and older are shown in Table 1 and FIG. 1. […]

As to `O=C(OOC(=O)c1ccccc1)c1ccccc1` [BPO, Benzoyl peroxide], in the test on rosacea, the “Response of rosacea lesions” value is given as “unresponsive”. In addition, the “Success rate greater than the success rate achieved with vehicle alone (difference drug - vehicle)” value in test [1] was 25%.
